From patent US6355647B1, “3-substituted 3,4,5,7-tetrahedropyrrolo[3′,4′:4,5]thieno-[2,3-d]pyrimidine derivatives, their preparation and use” (Abbott Laboratories, priority 1997, dated 2002)

Legend:
[1] = system: serotonin release in the dorsal raphe nucleus; conditions: rat; combined with paroxetine; cited from earlier work
[2] = system: serotonin release in the cortex; conditions: after systemic administration; cited from earlier work

melting point | Structure (SMILES) | effect of paroxetine on serotonin release in the dorsal raphe nucleus [1] | serotonin release in the cortex [2]
190 to 192 °C | CCOC(=O)N1Cc2sc3ncn(CCN4CCN(c5cccc6ccccc56)CC4)c(=O)c3c2C1 | – | –
– | COc1ccc(NC(=O)c2ccc(-c3ccc(-c4noc(C)n4)cc3C)cc2)cc1N1CCN(C)CC1 [GR 127 935] | potentiated | reduces serotonin release
190 °C | CCOC(=O)N1Cc2sc3ncn(CCCN4CCN(c5ccccc5C#N)CC4)c(=O)c3c2C1 | – | –
152 °C | CCOC(=O)N1Cc2sc3ncn(CCN4CCN(c5ccccc5C)CC4)c(=O)c3c2C1 | – | –
149 °C | CCOC(=O)N1Cc2sc3ncn(CCN4CCN(c5cccc6c5CCC6)CC4)c(=O)c3c2C1 | – | –
172 °C | CCOC(=O)N1Cc2sc3ncn(CCN4CCN(c5ccccc5Cl)CC4)c(=O)c3c2C1 | – | –
166 °C | CCOC(=O)N1Cc2sc3ncn(CCN4CCN(c5ncccn5)CC4)c(=O)c3c2C1 | – | –
